# Earlier results in patent US4756910A, “Adriamycin-entrapping liposome preparation” (priority 1985, dated 1988).
compound,measurement,setting,value
"COc1cccc2c1C(=O)c1c(O)c3c(c(O)c1C2=O)C[C@@](O)(C(=O)CO)C[C@@H]3O[C@H]1C[C@H](N)[C@H](O)[C@H](C)O1 [Free adriamycin, Adriamycin]",Cardiac toxicity (in words),background statement,accumulative cardiac toxicity
same,Disappearance from the blood (in words),"in vivo, iv",rapidly disappears from the blood after intravenous administration
